Patent US20250109107A1, “AROMATIC RING-FUSED HETEROCYCLIC RING COMPOUND AS POTASSIUM CHANNEL REGULATOR, AND PREPARATION THEREFOR AND USE THEREOF” (Shanghai Zhimeng Biopharma, Inc., priority 2022, published 2025)

Biological target: T1, KCNQ2 potassium channels (CHO-KCNQ2 cells) (Homo sapiens, UniProt O43526)
T1 construct: expressed in transfected cells; host or cells: CHO cells stably expressing KCNQ2 (G418 selection in the culture medium)
Test: Potassium ion channel opener activity test (FDSS/μCELL detection, FluxOR thallium flux)
Type: cell-based
Conditions: for EC50: 8 concentrations 0.045-100 μM, 3 replicate wells; for Maximum agonist rate (%): highest test concentration 100 μM, ratio of 180 s
Description: Example A1 Potassium Ion Channel Opener Activity Test (FDSS/p CELL Detection)
Cell preparation: CHO-KCNQ2 cells were cultured in a 175 cm^2 culture flask, and when the cell density grew to 60˜80%, the culture medium was removed and the cells were washed once with 7 mL PBS (Phosphate Buffered Saline), and then 3 mL of 0.25% Trypsin was added for digestion. After completion of digestion, 7 mL of culture medium (90% DMEM/F12+10% FBS+500 μg/mL G418) was added to neutralize, and centrifuged at 800 rpm for 3 min; the supernatant was aspirated, then 5 mL of culture medium was added to resuspend the cells, and the cells were counted.
Cell spreading: according to the cell counting results, the density was adjusted to 3×10^4 cells/well. After standing at room temperature for 30 minutes, the cells were placed in a CO2 incubator at 37° C. overnight, and incubated for 16-18 hours to reach a cell density of about 80%.
Fluorescent dye incubation: Cell culture solution was discarded, 80 μL/well of loading buffer was added and the cells were incubated for 60 minutes at room temperature and protected from light.
Compound incubation: Loading buffer was discarded, 80 μL/well of prepared compound solution was added, and the cells were incubated for 20 min at room temperature and protected from light.
Fluorescence data acquisition: Real-time fluorescence signal recording was performed using an FDSS/pCELL instrument with an excitation wavelength of 480 nm and an emission wavelength of 540 nm, and the signal was recorded once per second. 10 seconds of the baseline was recorded, then 20 μL/well of stimulation buffer was added, and the recording was continued until the end of 180 seconds.
Loading buffer: 10 mL/plate, prepared as follows:
Stimulation buffer: 5 mL/plate, prepared as follows:
The above buffers were obtained from a commercially available kit called FluxOR potassium ion channel assay.
20 mM stock solution of compound in DMSO was prepared, 10 μL of 20 mM compound stock solution was taken into 20 μL of DMSO solution, and a 3-fold serial dilution was performed to form 8 intermediate concentrations; then the intermediate concentrations of the compounds were taken respectively into test buffer, and a 200-fold dilution was performed to obtain the final concentration to be tested, and 80 μL of compound was taken and added to the assay plate.
The highest test concentration was 100 μM, and there was a total of8 concentrations. i.e., 100, 33.33, 11.11, 3.70, 1.23, 0.41, 0.137, 0.045 μM, respectively, with 3 replicate wells for each concentration.
The experimental data were analyzed by Excel 2007, GraphPad Prism 5.0 software, and the ratio of 180 s was counted to calculate the agonistic effect. The compound agonistic effect was calculated by the following equation: […]

T1 sequence (O43526 whole entry): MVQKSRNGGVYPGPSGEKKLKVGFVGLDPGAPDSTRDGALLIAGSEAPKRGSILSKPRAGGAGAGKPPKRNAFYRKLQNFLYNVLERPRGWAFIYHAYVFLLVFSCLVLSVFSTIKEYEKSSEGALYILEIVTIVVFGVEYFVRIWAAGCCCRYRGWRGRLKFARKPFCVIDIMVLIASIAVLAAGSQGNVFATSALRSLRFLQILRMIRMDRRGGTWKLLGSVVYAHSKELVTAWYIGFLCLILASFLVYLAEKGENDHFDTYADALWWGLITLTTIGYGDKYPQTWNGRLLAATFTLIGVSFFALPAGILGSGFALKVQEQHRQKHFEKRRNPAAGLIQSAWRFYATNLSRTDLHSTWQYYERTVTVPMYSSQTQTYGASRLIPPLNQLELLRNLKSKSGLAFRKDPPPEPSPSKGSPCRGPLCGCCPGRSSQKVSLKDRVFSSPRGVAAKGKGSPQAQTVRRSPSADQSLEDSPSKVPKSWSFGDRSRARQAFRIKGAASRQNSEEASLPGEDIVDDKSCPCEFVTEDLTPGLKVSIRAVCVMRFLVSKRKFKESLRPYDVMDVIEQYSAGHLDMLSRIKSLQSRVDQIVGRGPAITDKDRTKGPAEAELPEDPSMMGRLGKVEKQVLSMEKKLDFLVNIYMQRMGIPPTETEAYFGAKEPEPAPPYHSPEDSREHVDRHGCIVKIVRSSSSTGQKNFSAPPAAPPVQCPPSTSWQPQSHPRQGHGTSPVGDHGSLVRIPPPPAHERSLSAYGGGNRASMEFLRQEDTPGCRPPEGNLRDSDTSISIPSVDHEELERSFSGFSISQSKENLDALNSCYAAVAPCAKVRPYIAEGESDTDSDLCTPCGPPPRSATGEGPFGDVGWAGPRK

SMILES	EC50 [nM]	Maximum agonist rate (%)
Cc1cc2c(c(C)c1NC(=O)CC1(C)CC1)CN(c1ccc(C(F)(F)F)cc1)CC2 [Compound 3002]	59	38.96
Cc1cc2c(c(C)c1NC(=O)CC1(C)CC1)CN(c1ccc(F)cc1)CC2 [Compound 3001]	400	36.30
